Experimental data as given in patent US10730840B2, “Substituted tetrahydroisoquinoline ethylbenzamide anti-cancer agents” (Florida A&M University, priority 2017, dated 2020).

What was measured:
[1] = system: MCF-7 (ER positive breast cancer cell line); assay: CellTiter-Glo antiproliferative activity, MCF-7 cell line; type: cell-based, human; settings: for IC50: Homo sapiens, MCF7, Table 1, read-out: IC50 MCF-7
From the text: (§1) Numerous substituted THIQs were systematically synthesized employing molecular design and structure activity relationship studies (Suresh et al., (2014) Lett. Drug Design & Discov. 11: 428-436; Gangapuram et al., (2014) J. Cancer Sci. Ther. 6: 161-169). The compounds' cytotoxic effects on MCF-7 (estrogen receptor positive breast cancer) cell lines, MDA-MB-231 (estrogen receptor negative breast cancer) cell lines and Ishikawa cell lines using CellTiter-Glo (CTG) luminescent cell viability essay were studied. The tests were done on different concentrations of the compounds ranging from 0.01 to 100,000 nM on 5000 MCF-7 cells/well, on 5000 MDA-MB-231 cells/well and on 5000 Ishikawa cells/well. Drug exposed cells were incubated at 37° C. for three days followed by CTG assay. Then IC50 values were generated from Graph Pad Prism 4.
(§2) Chemistry: Several substituted tetrahydroisoquinolines 2d-2m, 3h, 3k, 3l, and 4a-4f were prepared according to three different procedures as shown in Schemes 1, 2 and 3 (FIGS. 2-4). […] The aminating agent 10 was prepared using a reported procedure (Tamura et al., (1972) J. Org. Chem. 40: 4133-4135). The amino salts of ring substituted 2-aminoisoquinolinium mesitylenesulfonates of general structure 11 used in the present study were prepared by the reaction of substituted isoquinolines and the aminating agent 10 as previously reported (Gangapuram et al., (2014) J. Cancer Sci. Ther. 6: 161-169). […] The aminating agent 13 was prepared using a reported procedure (Legault & Charette (2003) J. Org. Chem. 68: 7119-7122). The amino salts of ring substituted 2-aminoisoquinolinium compounds of general structure 14 were obtained with the reaction of the substituted isoquinolines and the aminating agent 13 in CH3CN heated at 50° C. for 24 hours. Without further purification, the salts were used to prepare the N-ylides by reaction with substituted acyl/sulfonyl chlorides. […] N-Oxidation of commercially available ring substituted THIQs followed by the reduction of the NO group using standard zinc/acetic acid led to the synthesis of N-amino THIQs.
(§3) The antiproliferative activities of substituted tetrahydroisoquinolines 2a-2m, 3a-3l and 4a-4f were evaluated according to the procedure reported previously (Crouch et al., (1993) J. Immunol. Methods 160: 81-88).
(§4) Human MCF-7 and MDA-MB-231 breast cancer cell lines were purchased from the NCI. The human Ishikawa endometrial cancer cell line was purchased from Sigma Aldrich. All three cell lines were cultured in phenol red-free RPMI-1640 (Hyclone) (500 mL) supplemented with L-glutamine-dipeptide (Hyclone) (5 mL), and 10% fetal bovine serum (Atlanta Biologicals) (50 mL).
(§5) The cell lines were cultured and treated with compounds under study including the standard TAM ranging from 0.01 nM to 100,000 nM concentration in the presence of 10 nM estradiol using the previous reported method (Suresh et al., (2014) Lett. Drug Des. Discov. 11: 428-436).
(§6) The amount of ATP is determined using a system based on luciferase and D-luciferin resulting in light generation.

microtubule network = settings: Gangapuram et al. (2014); cited from earlier work
[2] = system: MDA-MB-231 (ER negative breast carcinoma cell line); assay: CellTiter-Glo antiproliferative activity, MDA-MB-231 cell line; type: cell-based, human; settings: 72 h exposure, in the presence of 10 nM estradiol; for IC50: Homo sapiens, MDA-MB-231, Table 1
From the text: as §1, §2, §3, §4, §5

[3] = system: MCF-7, MDA-MB-231, and Ishikawa cell lines; assay: Antiproliferative activity, summary statements over the three cell lines; type: cell-based, human; settings: MCF-7, MDA-MB-231 and Ishikawa cell lines together
From the text: as §1, §2, §3, §4, §5

[4] = system: Ishikawa (endometrial) cancer cell line; assay: CellTiter-Glo antiproliferative activity, Ishikawa cell line; type: cell-based, human; settings: 72 h exposure, in the presence of 10 nM estradiol; for IC50: Homo sapiens, Ishikawa, Table 1, read-out: IC50 Ishikawa
From the text: as §1, with “4. […]” for “4.”
as §3, §4, §5, §6

[5] = 72 h exposure, in the presence of 10 nM estradiol

SMILES | IC50 against MCF-7 cell line [1, 5] [µg/mL] | antiproliferative activity against MCF-7 cell line in words ([1]; based on IC50 value) | microtubule-destabilizing activity (microtubule network) | IC50 against MDA-MB-231 cell line [2] [µg/mL] | antiproliferative activity in words [3] | IC50 against Ishikawa cell line [4] [µg/mL] | IC50 [1, 5] [µg/mL] | IC50 [2] [µg/mL] | IC50 [4] [µg/mL] | melting point [°C]
CCc1ccc(C(=O)NN2CCc3ccc(O)cc3C2)cc1 [Compound 2b] | 0.2 | very active | potent microtubule-destabilizing agent | 0.13 | more active than the lead structure (1) | 0.08 | – | – | – | –
CCc1ccc(C(=O)Nc2cccc3c2CCN(NC(=O)c2ccc(CC)cc2)C3)cc1 [Compound 3c, N,N′-(3,4-Dihydroisoquinoline-2, 5(1H)-diyl)bis(4-ethylbenzamide)] | – | – | – | – | less active | – | 4.59 | 6.1 | 9.45 | 216 to 218
CCc1ccc(C(=O)NN2CCc3c(cccc3NC(C)=O)C2)cc1 [Compound 3d, N-(5-Acetamido-3,4-dihydroisoquinolin-2(1H)-yl)-4-ethylbenzamide] | – | – | – | – | completely inactive | – | > 33.7 | > 33.7 | > 33.7 | 295 to 297
CCc1ccc(C(=O)NN2CCc3cc(OC(=O)c4ccc(CC)cc4)ccc3C2C(=O)OC)cc1 (stereo not drawn) [Compound 4f, Methyl-2-(4-ethylbenzamido)-6-((4-ethylbenzoyl)oxy)-1,2,3,4-tetrahydroisoquinoline-1-carboxylate] | – | – | – | – | completely inactive | – | > 48.6 | > 48.6 | 45.6 | 150 to 152
CCc1ccc(C(=O)NN2CCc3cc(OC)c(OC)cc3C2C(C)C)cc1 (stereo not drawn) [Compound 4c, 4-Ethyl-N-(1-isopropyl-6,7-dimethoxy-3,4-dihydroisoquinolin-2(1H)-yl)benzamide] | – | – | – | – | completely inactive | – | > 38.2 | > 38.2 | 15 | 162 to 163
COc1ccc(S(=O)(=O)NN2CCc3c(cccc3OS(=O)(=O)c3ccc(OC)cc3)C2)cc1 [Compound 3l, 2-(4-Methoxyphenylsulfonamido)-1,2,3,4-tetrahydroisoquinolin-5-yl-4-methoxybenzene-sulfonate] | – | – | – | – | completely inactive | – | > 50.5 | > 50.5 | > 50.5 | 182 to 183
CCc1ccc(C(=O)Nc2cccc3c2CN(NC(=O)c2ccc(CC)cc2)CC3)cc1 [Compound 2j, N,N′-(3,4-dihydroisoquinoline-2,8(1H)-diyl)bis(4-ethylbenzamide)] | – | – | – | – | less active | – | 9.35 | 9.71 | 2.74 | 113.2 to 116.4
